Experiments:
Assay in all cases: MTS cytotoxicity assay, 72 h
[1] = test system: A549; assay type: cell-based; conditions: Homo sapiens, Fig. S22
Description: Cell suspensions were prepared and diluted according to the particular cell type and the expected target cell density (500 – 4,000 cells/well). The cells (30 μL/well) were seeded to 384-well clear Corning plates by MultiDrop Combi (Thermo Fisher Scientific, USA). After 24 h the cells were treated with tested compounds as well as with vehicle (DMSO) and high controls (2.67 μM of Actinomycin D and 100 μM Mitomycin C) using contact-free acoustic liquid handler ECHO 555 (Labcyte, USA). Compounds were analyzed at a concentration range from 0.012 μM to 50 μM. Treated cells were incubated at 37 °C in a 5% CO2 atmosphere of a humidified incubator for 72 h. At the end of the incubation period, aliquots of the MTS (Promega) solution prepared according to manufacturer's instructions were added to cells (https://worldwide.promega.com/resources/protocols/technical-bulletins/0/celltiter-96-aqueous-nonradioactive-cell-proliferation-assay-protocol/). After 1 – 4 h of the incubation period, the optical density (OD) at 490 nm was measured on a multimode plate reader EnVision (PerkinElmer, USA). The experiments were performed in technical duplicates and at least three biological replicates. […] The assay quality was monitored by determining the Z′-factor for each 384-well plate. The resistance index (RI), representing the reduction in compound activity on resistant cell lines, was calculated as RI = (IC50 of resistant cell lines, CEM-DNR, K562-TAX)/(IC50 of nonresistant counterparts, CCRF-CEM, K562). Similarly, the selectivity index (SI), indicating preferential cytotoxicity toward tumor cell lines, was calculated as SI = (mean IC50 of nontumor cell lines, BJ and MRC5)/(mean IC50 of cancer cell lines without resistant variants, CCRF-CEM, K562, HCT116, HCT116p53–/–, U2OS).

[2] = test system: HCT116p53–/–; assay type: cell-based; conditions: MTS assay, 3-day incubation, mean ± SD, read-out: IC50 HCT116p53–/–
[3] = test system: CCRF-CEM; assay type: cell-based; conditions: Homo sapiens, CCRF-CEM, 72 h; MTS assay, 3-day incubation, mean ± SD of 3 experiments; read-out: IC50 CCRF-CEM
[4] = test system: U2OS; assay type: cell-based, human; conditions: Homo sapiens, U2OS, 72 h; MTS assay, 3-day incubation, mean ± SD; read-out: IC50 U2OS
[5] = test system: MRC-5; assay type: cell-based; conditions: Homo sapiens, MRC5, 72 h; normal fibroblasts; MTS assay, 3-day incubation, mean ± SD; read-out: IC50 MRC-5
[6] = test system: K562; assay type: cell-based; conditions: Homo sapiens, K562, 72 h; MTS assay, 3-day incubation, mean ± SD; read-out: IC50 K562
[7] = test system: HCT116; assay type: cell-based; conditions: Homo sapiens, HCT-116, 72 h; MTS assay, 3-day incubation, mean ± SD; read-out: IC50 HCT116
[8] = test system: K562-TAX; assay type: cell-based; conditions: paclitaxel-resistant, MTS assay, 3-day incubation, mean ± SD, read-out: IC50 K562-TAX
[9] = test system: CEM-DNR; assay type: cell-based; conditions: Homo sapiens, daunorubicin-resistant, MTS assay, 3-day incubation, mean ± SD, read-out: IC50 CEM-DNR
[10] = test system: BJ; assay type: cell-based; conditions: Homo sapiens, normal fibroblasts, MTS assay, 3-day incubation, mean ± SD, read-out: IC50 BJ

| SMILES | IC50 [1] | IC50 [2] | IC50 [3] | IC50 [4] | IC50 [5] | IC50 [6] | IC50 [7] | IC50 [8] | IC50 [9] | IC50 [10] |
| --- | --- | --- | --- | --- | --- | --- | --- | --- | --- | --- |
| COc1cc(C2=C3C(C)=CC(C)=[N+]3[B-](F)(F)n3c(C)cc(C)c32)ccc1O [B7] | > 50 µM | > 50 µM | > 50 µM | > 50 µM | > 50 µM | > 50 µM | > 50 µM | > 50 µM | 39.9 µM | > 50 µM |
| C#CCOc1ccc(C2=C3C(C)=CC(C)=[N+]3[B-](F)(F)n3c(C)cc(C)c32)cc1OC [B8] | > 50 µM | > 50 µM | > 50 µM | > 50 µM | > 50 µM | > 50 µM | > 50 µM | > 50 µM | > 50 µM | > 50 µM |
| C#CCCCC1=C2C(C)=CC(C)=[N+]2[B-](F)(F)n2c(C)cc(C)c21 [B9] | > 50 µM | > 50 µM | > 50 µM | > 50 µM | > 50 µM | > 50 µM | > 50 µM | > 50 µM | > 50 µM | > 50 µM |
| C#CCCCCCCCCC1=C2C(C)=CC(C)=[N+]2[B-](F)(F)n2c(C)cc(C)c21 [B10] | > 50 µM | > 50 µM | > 50 µM | > 50 µM | > 50 µM | > 50 µM | > 50 µM | > 50 µM | > 50 µM | > 50 µM |

Source: paper PMC12261228 (ACS Pharmacology & Translational Science, 2025)
